Numbers after ± are expanded uncertainties.
Test: refractive index (Na D-line) (dimensionless)
Conditions: 298.15 K; 101.33 kPa; Liquid; Standard Abbe refractometry

| SMILES | refractive index |
| --- | --- |
| CCOC(C)(C)C [2-ethoxy-2-methylpropane] | 1.373 ± 0.0007 |
| c1ccsc1 [thiophene] | 1.5255 ± 0.0007 |
| CC(C)CC(C)(C)C [2,2,4-trimethylpentane] | 1.389 ± 0.0007 |
| Cc1ccccc1 [toluene] | 1.494 ± 0.0007 |
